Tested on: B. anthracis strain 34F2ΔluxS
Assay type: cell-based

Compound: CCCCC1=C(Br)/C(=C/Br)OC1=O [furanone 1, (5Z)-4-bromo-5-(bromomethylene)-3-butyl-2(5H)-furanone]
- Growth of the 34F2ΔluxS strain (OD600): dramatically inhibited
- Growth inhibitory effect for 34F2ΔluxS relative to wild-type 34F2 (20 μg/ml, 30 hrs): prolonged

From US7955596B2 (priority 2003, dated 2011)
